From ChEMBL document CHEMBL1201862, “PubChem BioAssay data set” (2004)
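Following 48 hours of exposure in 96-well plates, responses at five concentrations were used to interpolate endpoints linearly. Abbreviation: GI50, concentration required for 50% inhibition of growth.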 Active and inactive are the calls of the source. Rule as the data show it: active = GI50 up to about 1.1 µM and inactive = higher.

Columns and labels:
Experiment in all cases: inhibition of tumour cell growth, NCI panel, 48 h
UACC-62 = test system: UACC-62
HCC 2998 = test system: HCC 2998
SF-268 = test system: SF-268
SK-MEL-2 = test system: SK-MEL-2
TK-10 = test system: TK-10
RXF 393 = test system: RXF 393
T47D = test system: T47D
SW-620 = test system: SW-620
SF-295 = test system: SF-295
786-0 = test system: 786-0
U-251 = test system: U-251
RPMI-8226 = test system: RPMI-8226
MOLT-4 = test system: MOLT-4
MDA-MB-231 = test system: MDA-MB-231
CCRF-CEM = test system: CCRF-CEM
EKVX = test system: EKVX
CAKI-1 = test system: CAKI-1
MDA-MB-435 = test system: MDA-MB-435
SNB-75 = test system: SNB-75
A549 = test system: A549
SN12C = test system: SN12C
HCT-15 = test system: HCT-15
SNB-19 = test system: SNB-19
DU-145 = test system: DU-145
BT-549 = test system: BT-549
UACC-257 = test system: UACC-257
OVCAR-8 = test system: OVCAR-8
NCI-H522 = test system: NCI-H522
KM12 = test system: KM12
NCI-H23 = test system: NCI-H23
NCI-H226 = test system: NCI-H226
K562 = test system: K562
Malme-3M = test system: Malme-3M
NCI/ADR-RES = test system: NCI/ADR-RES
HCT-116 = test system: HCT-116
COLO 205 = test system: COLO 205
OVCAR-5 = test system: OVCAR-5
IGROV-1 = test system: IGROV-1
PC-3 = test system: PC-3
NCI-H460 = test system: NCI-H460
MDA-N = test system: MDA-N
ACHN = test system: ACHN
LOX IMVI = test system: LOX IMVI
HOP-62 = test system: HOP-62
A498 = test system: A498
SK-MEL-28 = test system: SK-MEL-28
SK-OV-3 = test system: SK-OV-3
HT-29 = test system: HT-29
UO-31 = test system: UO-31
SK-MEL-5 = test system: SK-MEL-5
OVCAR-4 = test system: OVCAR-4
M14 = test system: M14
SR = test system: SR
MCF7 = test system: MCF7
SF-539 = test system: SF-539
OVCAR-3 = test system: OVCAR-3
HOP-92 = test system: HOP-92

With `C=C(C(=O)OC)[C@@H]1C[C@@H](OC(C)=O)C2=C[C@H](C[C@@]3(C)O[C@@H]3C3=CC(C)=C(O3)[C@H]1OC(C)=O)OC2=O` [BIPINNATIN I] as the compound, how does the GI50 (UACC-62) read?
Its GI50 is 18.4 µM (inactive).

And the GI50 (HCC 2998)?
Its GI50 is 20.4 µM (inactive).

And the GI50 (SF-268)?
Its GI50 is 36.1 µM (inactive).

And the GI50 (SK-MEL-2)?
The GI50 was 31 µM (inactive).

What about the GI50 (TK-10) of the same compound?
The GI50 was 16 µM (inactive).

And the GI50 (RXF 393)?
Its GI50 is 12 µM (inactive).

And the GI50 (T47D)?
Its GI50 is 12.7 µM (inactive).

And the GI50 (SW-620)?
The GI50 was 4.71 µM (inactive).

What about the GI50 (SF-295) of the same compound?
The GI50 was 27 µM (inactive).

What about the GI50 (786-0) of the same compound?
The GI50 was 14.7 µM (inactive).

And the GI50 (U-251)?
Its GI50 is 23.1 µM (inactive).

What about the GI50 (RPMI-8226) of the same compound?
Its GI50 is 5.75 µM (inactive).

What about the GI50 (MOLT-4) of the same compound?
The GI50 was 2.16 µM (inactive).

What about the GI50 (MDA-MB-231) of the same compound?
Its GI50 is 20.9 µM (inactive).

What about the GI50 (CCRF-CEM) of the same compound?
The GI50 was 0.0429 µM (active).

And the GI50 (EKVX)?
The GI50 was 18.4 µM (inactive).

What about the GI50 (CAKI-1) of the same compound?
The GI50 was 7.74 µM (inactive).

What about the GI50 (MDA-MB-435) of the same compound?
The GI50 was 16.8 µM (inactive).

What about the GI50 (SNB-75) of the same compound?
Its GI50 is 26.1 µM (inactive).

What about the GI50 (A549) of the same compound?
Its GI50 is 40.7 µM (inactive).

What about the GI50 (SN12C) of the same compound?
The GI50 was 22.4 µM (inactive).

And the GI50 (HCT-15)?
The GI50 was 17.5 µM.

What about the GI50 (SNB-19) of the same compound?
Its GI50 is 47.6 µM (inactive).

What about the GI50 (DU-145) of the same compound?
The GI50 was 32.9 µM (inactive).

And the GI50 (BT-549)?
The GI50 was 12.9 µM (inactive).

And the GI50 (UACC-257)?
Its GI50 is 18.2 µM (inactive).

What about the GI50 (OVCAR-8) of the same compound?
Its GI50 is 17.3 µM (inactive).

What about the GI50 (NCI-H522) of the same compound?
The GI50 was 2.59 µM (inactive).

And the GI50 (KM12)?
Its GI50 is 19.8 µM (inactive).

And the GI50 (NCI-H23)?
Its GI50 is 14.5 µM (inactive).

What about the GI50 (NCI-H226) of the same compound?
Its GI50 is 90.8 µM (inactive).

And the GI50 (K562)?
The GI50 was 6.84 µM (inactive).

What about the GI50 (Malme-3M) of the same compound?
Its GI50 is 13.3 µM (inactive).

And the GI50 (NCI/ADR-RES)?
The GI50 was 32.9 µM (inactive).

And the GI50 (HCT-116)?
Its GI50 is 10.4 µM (inactive).

What about the GI50 (COLO 205) of the same compound?
Its GI50 is 10.8 µM (inactive).

What about the GI50 (OVCAR-5) of the same compound?
Its GI50 is 17.9 µM (inactive).

What about the GI50 (IGROV-1) of the same compound?
The GI50 was 15.3 µM (inactive).

And the GI50 (PC-3)?
The GI50 was 25.2 µM (inactive).

And the GI50 (NCI-H460)?
Its GI50 is 23.6 µM (inactive).

What about the GI50 (MDA-N) of the same compound?
The GI50 was 19.4 µM (inactive).

And the GI50 (ACHN)?
The GI50 was 16.5 µM (inactive).

And the GI50 (LOX IMVI)?
The GI50 was 16.3 µM (inactive).

And the GI50 (HOP-62)?
The GI50 was 22.7 µM (inactive).

And the GI50 (A498)?
The GI50 was 16.9 µM (inactive).

And the GI50 (SK-MEL-28)?
The GI50 was 16.2 µM (inactive).

And the GI50 (SK-OV-3)?
Its GI50 is 37.5 µM (inactive).

And the GI50 (HT-29)?
Its GI50 is 6.24 µM (inactive).

And the GI50 (UO-31)?
Its GI50 is 16 µM (inactive).

And the GI50 (SK-MEL-5)?
The GI50 was 15.2 µM (inactive).

And the GI50 (OVCAR-4)?
The GI50 was 35.2 µM (inactive).

And the GI50 (M14)?
The GI50 was 14.8 µM (inactive).

What about the GI50 (SR) of the same compound?
The GI50 was 9.38 µM (inactive).

What about the GI50 (MCF7) of the same compound?
The GI50 was 8.28 µM (inactive).

And the GI50 (SF-539)?
Its GI50 is 31.4 µM (inactive).

`Nc1ccn([C@H]2CO[C@@H](CO)[C@@H]2O)c(=O)n1` was tested. Which GI50 (UACC-62) did it give?
Its GI50 is > 100 µM (inactive).

And the GI50 (HCC 2998)?
Its GI50 is > 100 µM (inactive).

What about the GI50 (SF-268) of the same compound?
Its GI50 is > 100 µM (inactive).

And the GI50 (SK-MEL-2)?
The GI50 was > 100 µM (inactive).

What about the GI50 (TK-10) of the same compound?
Its GI50 is > 100 µM (inactive).

And the GI50 (RXF 393)?
Its GI50 is > 100 µM (inactive).

And the GI50 (OVCAR-3)?
Its GI50 is > 100 µM (inactive).

What about the GI50 (T47D) of the same compound?
Its GI50 is > 100 µM (inactive).

What about the GI50 (SW-620) of the same compound?
The GI50 was > 100 µM (inactive).

And the GI50 (SF-295)?
Its GI50 is > 100 µM (inactive).

What about the GI50 (786-0) of the same compound?
The GI50 was > 100 µM (inactive).

And the GI50 (U-251)?
Its GI50 is > 100 µM (inactive).

And the GI50 (RPMI-8226)?
The GI50 was > 100 µM (inactive).

What about the GI50 (MOLT-4) of the same compound?
The GI50 was > 100 µM (inactive).

What about the GI50 (MDA-MB-231) of the same compound?
The GI50 was > 100 µM (inactive).

What about the GI50 (CCRF-CEM) of the same compound?
Its GI50 is > 100 µM (inactive).

And the GI50 (EKVX)?
Its GI50 is > 100 µM (inactive).

What about the GI50 (CAKI-1) of the same compound?
The GI50 was > 100 µM (inactive).

What about the GI50 (MDA-MB-435) of the same compound?
The GI50 was > 100 µM (inactive).

What about the GI50 (SNB-75) of the same compound?
Its GI50 is > 100 µM (inactive).

And the GI50 (SN12C)?
The GI50 was > 100 µM (inactive).

What about the GI50 (HCT-15) of the same compound?
The GI50 was > 100 µM.

And the GI50 (DU-145)?
The GI50 was > 100 µM (inactive).

What about the GI50 (BT-549) of the same compound?
The GI50 was > 100 µM (inactive).

And the GI50 (UACC-257)?
Its GI50 is > 100 µM (inactive).

What about the GI50 (KM12) of the same compound?
Its GI50 is > 100 µM (inactive).

What about the GI50 (NCI-H23) of the same compound?
The GI50 was > 100 µM (inactive).

And the GI50 (NCI-H226)?
The GI50 was > 100 µM (inactive).

What about the GI50 (K562) of the same compound?
Its GI50 is > 100 µM (inactive).

And the GI50 (NCI/ADR-RES)?
The GI50 was > 100 µM (inactive).

And the GI50 (HCT-116)?
The GI50 was > 100 µM (inactive).

And the GI50 (COLO 205)?
The GI50 was > 100 µM (inactive).

What about the GI50 (OVCAR-5) of the same compound?
The GI50 was > 100 µM (inactive).

What about the GI50 (IGROV-1) of the same compound?
Its GI50 is > 100 µM (inactive).

What about the GI50 (PC-3) of the same compound?
Its GI50 is > 100 µM (inactive).

What about the GI50 (NCI-H460) of the same compound?
Its GI50 is > 100 µM (inactive).

And the GI50 (MDA-N)?
The GI50 was > 100 µM (inactive).

And the GI50 (ACHN)?
The GI50 was > 100 µM (inactive).

What about the GI50 (LOX IMVI) of the same compound?
The GI50 was > 100 µM (inactive).

And the GI50 (HOP-62)?
Its GI50 is > 100 µM (inactive).

And the GI50 (A498)?
Its GI50 is > 100 µM (inactive).

What about the GI50 (SK-MEL-28) of the same compound?
Its GI50 is > 100 µM (inactive).

And the GI50 (SK-OV-3)?
The GI50 was > 100 µM (inactive).

What about the GI50 (HT-29) of the same compound?
The GI50 was > 100 µM (inactive).

And the GI50 (UO-31)?
The GI50 was > 100 µM (inactive).

And the GI50 (SK-MEL-5)?
The GI50 was > 100 µM (inactive).

What about the GI50 (OVCAR-4) of the same compound?
The GI50 was > 100 µM (inactive).

And the GI50 (SR)?
The GI50 was > 100 µM (inactive).

What about the GI50 (MCF7) of the same compound?
Its GI50 is > 100 µM (inactive).

And the GI50 (HOP-92)?
Its GI50 is > 100 µM (inactive).

And the GI50 (SF-539)?
Its GI50 is > 100 µM (inactive).
